{"source": "patent US20220062240A1", "about": "“METHODS OF TREATING CANCER USING A CLK INHIBITOR” (BioSplice Therapeutics, Inc., priority 2018, published 2022)", "key": {"[1]": {"system": "prostate cancer (5 cell lines)", "test": "CellTiter-Glo Viability Assay, prostate cancer", "type": "cell-based", "settings": "Homo sapiens"}, "[2]": {"target": "T1, CLK2 (Homo sapiens, UniProt P49760)", "T1 construct": "purchased Thermo Fisher (Life Technologies), Z'-LYTE Kinase Assay Kits", "test": "CLK2 kinase activity assay (Z-lyte, Ser/Thr 6 peptide)", "type": "biochemical", "settings": "recombinant CLK2 kinase, ATP 60 μM; read-out: EC50", "protocol": "All reactions were performed in duplicate."}, "[3]": {"system": "pancreatic cancer (8 cell lines)", "test": "CellTiter-Glo Viability Assay, pancreatic cancer", "type": "cell-based", "settings": "Homo sapiens, inhibition of cancer cell proliferation"}, "[4]": {"target": "CLK3 (Homo sapiens, UniProt P49761)", "sequence (P49761 whole entry)": "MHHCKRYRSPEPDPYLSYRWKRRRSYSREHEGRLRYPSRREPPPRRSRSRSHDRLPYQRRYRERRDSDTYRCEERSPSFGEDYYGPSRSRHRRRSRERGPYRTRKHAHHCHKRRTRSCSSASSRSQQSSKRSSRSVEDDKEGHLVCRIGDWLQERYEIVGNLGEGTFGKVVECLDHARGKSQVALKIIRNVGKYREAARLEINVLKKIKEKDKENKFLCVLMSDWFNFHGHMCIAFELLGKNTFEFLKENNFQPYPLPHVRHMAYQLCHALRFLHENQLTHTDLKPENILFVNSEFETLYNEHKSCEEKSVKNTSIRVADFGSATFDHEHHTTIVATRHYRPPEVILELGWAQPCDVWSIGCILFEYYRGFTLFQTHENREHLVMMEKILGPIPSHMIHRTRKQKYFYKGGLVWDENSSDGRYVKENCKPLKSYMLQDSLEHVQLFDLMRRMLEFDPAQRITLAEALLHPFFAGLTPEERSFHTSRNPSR", "test": "CLK3 kinase activity assay (Z-lyte, Ser/Thr 18 peptide)"}, "[5]": {"system": "colorectal cancer (6 cell lines)", "test": "CellTiter-Glo Viability Assay, colorectal cancer", "type": "cell-based", "settings": "Homo sapiens, inhibition of cancer cell proliferation"}, "[6]": {"system": "liver cancer (3 cell lines)", "test": "CellTiter-Glo Viability Assay, liver cancer", "type": "cell-based", "settings": "Homo sapiens, inhibition of cancer cell proliferation"}, "[7]": {"system": "haematopoietic & lymphoid tumors (13 cell lines)", "test": "CellTiter-Glo Viability Assay, haematopoietic & lymphoid tumors", "type": "cell-based", "settings": "Homo sapiens, inhibition of cancer cell proliferation"}, "[8]": {"system": "T47D", "test": "CellTiter-Glo Viability Assay, breast cancer", "type": "cell-based", "settings": "Homo sapiens, 96 h, breast cancer, four days, read-out: EC50"}, "[9]": {"system": "DU4475", "test": "CellTiter-Glo Viability Assay, breast cancer", "type": "cell-based", "settings": "Homo sapiens, DU-4475, 96 h; DU4475, breast cancer, four days; read-out: EC50"}, "[10]": {"system": "ZR-75-1", "test": "CellTiter-Glo Viability Assay, breast cancer", "type": "cell-based", "settings": "Homo sapiens, 96 h; ZR-75-1, breast cancer, four days; read-out: EC50"}, "[11]": {"system": "MDA-MB-231-Luc", "test": "CellTiter-Glo Viability Assay, breast cancer", "type": "cell-based", "settings": "Homo sapiens, 96 h; MDA-MB-231-Luc, breast cancer, four days; read-out: EC50"}, "[12]": {"system": "HCC1599", "test": "CellTiter-Glo Viability Assay, breast cancer", "type": "cell-based", "settings": "Homo sapiens, 96 h; HCC1599, breast cancer, four days; read-out: EC50"}, "[13]": {"system": "CAMA1", "test": "CellTiter-Glo Viability Assay, breast cancer", "type": "cell-based", "settings": "Homo sapiens, CAMA-1, 96 h; CAMA1, breast cancer, four days; read-out: EC50"}, "[14]": {"system": "MCF7", "test": "CellTiter-Glo Viability Assay, breast cancer", "type": "cell-based", "settings": "Homo sapiens, 96 h; MCF7, breast cancer, four days; read-out: EC50"}, "[15]": {"system": "BT-549", "test": "CellTiter-Glo Viability Assay, breast cancer", "type": "cell-based", "settings": "Homo sapiens, 96 h; BT-549, breast cancer, four days; read-out: EC50"}, "[16]": {"system": "all 50 cell lines", "test": "CellTiter-Glo Viability Assay, average across all cell lines", "type": "cell-based", "settings": "Homo sapiens; across all 50 cell lines; read-out: average EC50 for inhibition of cancer cell proliferation", "outline": "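Cells were plated at 300-3,000 per well in their own media, then treated with compound in duplicate, with DMSO wells as controls. After four days at 37° C and 5% CO2, CellTiter-Glo was added, and luminescence was read. EC50s were fitted.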"}, "[17]": {"system": "ovarian cancer (4 cell lines)", "test": "CellTiter-Glo Viability Assay, ovarian cancer", "type": "cell-based", "settings": "Homo sapiens, inhibition of cancer cell proliferation"}, "[18]": {"system": "lung cancer (4 cell lines)", "test": "CellTiter-Glo Viability Assay, lung cancer", "type": "cell-based", "settings": "Homo sapiens, inhibition of cancer cell proliferation"}}, "note": "Like-named read-outs stand apart in the source and are kept apart here.", "data": [{"compound": "CN1CCC(Oc2ccc(NC(=O)c3n[nH]c4cc(F)c(-c5cnn(C)c5)cc34)cc2)CC1", "note": "[Compound 61]", "values": [{"measurement": "EC50", "setting": "[1]; DU-145, read-out: Prostate cancer EC50 Du-145", "value": 1.26, "unit": "µM"}, {"measurement": "EC50", "setting": "[1]; PC-3, PC3 cell line, inhibition of cancer cell proliferation, read-out: Prostate cancer EC50 PC3", "value": 1.23, "unit": "µM"}, {"measurement": "EC50", "setting": "[1]; 22Rv1 cell line, inhibition of cancer cell proliferation, read-out: Prostate cancer EC50 22Rv1", "value": 0.672, "unit": "µM"}, {"measurement": "EC50", "setting": "[1]; LNCap clone FGC cell line, inhibition of cancer cell proliferation, read-out: Prostate cancer EC50 LNCap clone FGC", "value": 0.779, "unit": "µM"}, {"measurement": "EC50", "setting": "[1]; VCaP (Sigma) cell line, inhibition of cancer cell proliferation, read-out: Prostate cancer EC50 VCaP (Sigma)", "value": 1.48, "unit": "µM"}, {"measurement": "EC50", "setting": "[2]", "value": 0.0006, "unit": "µM"}, {"measurement": "EC50", "setting": "[3]; BXPC-3, BxPC3 cell line, read-out: Pancreatic cancer, EC50 BxPC3", "value": 2.03, "unit": "µM"}, {"measurement": "EC50", "setting": "[3]; CAPAN-1, Capan1 cell line, read-out: Pancreatic cancer, EC50 Capan1", "value": 2.09, "unit": "µM"}, {"measurement": "EC50", "setting": "[3]; Capan-2, Capan2 cell line, read-out: Pancreatic cancer, EC50 Capan2", "value": 2.71, "unit": "µM"}, {"measurement": "EC50", "setting": "[3]; MIA PaCa-2 cell line, read-out: Pancreatic cancer, EC50 MIA PaCa-2", "value": 0.438, "unit": "µM"}, {"measurement": "EC50", "setting": "[3]; PANC 05.04 cell line, read-out: Pancreatic cancer, EC50 PANC 05.04", "value": 2.26, "unit": "µM"}, {"measurement": "EC50", "setting": "[3]; PANC-1 cell line, read-out: Pancreatic cancer, EC50 PANC-1", "value": 2.16, "unit": "µM"}, {"measurement": "EC50", "setting": "[3]; UPAFII cell line, read-out: Pancreatic cancer, EC50 UPAFII", "value": 1.03, "unit": "µM"}, {"measurement": "EC50", "setting": "[4]", "value": 0.0491, "unit": "µM"}, {"measurement": "EC50", "setting": "[5]; HCT-116, HCT116 cell line, read-out: Colorectal cancer, EC50 (μM) HCT116", "value": 0.611, "unit": "µM"}, {"measurement": "EC50", "setting": "[5]; HT-29, HT29 cell line, read-out: Colorectal cancer, EC50 (μM) HT29", "value": 1.7, "unit": "µM"}, {"measurement": "EC50", "setting": "[5]; SW-620, SW620 cell line, read-out: Colorectal cancer, EC50 (μM) SW620", "value": 0.418, "unit": "µM"}, {"measurement": "EC50", "setting": "[5]; DLD-1 cell line, read-out: Colorectal cancer, EC50 (μM) DLD-1", "value": 0.644, "unit": "µM"}, {"measurement": "EC50", "setting": "[5]; SW48 cell line, read-out: Colorectal cancer, EC50 (μM) SW48", "value": 0.151, "unit": "µM"}, {"measurement": "EC50", "setting": "[5]; SW480 cell line, read-out: Colorectal cancer, EC50 (μM) SW480", "value": 0.769, "unit": "µM"}, {"measurement": "EC50", "setting": "[6]; SNU-398, SNU398 cell line, read-out: Liver cancer, EC50 SNU398", "value": 0.45, "unit": "µM"}, {"measurement": "EC50", "setting": "[6]; HEPG2 cell line, read-out: Liver cancer, EC50 HEPG2", "value": 1.46, "unit": "µM"}, {"measurement": "EC50", "setting": "[6]; PLC/PRF/5 cell line, read-out: Liver cancer, EC50 PLC/PRF/5", "value": 3.16, "unit": "µM"}, {"measurement": "EC50", "setting": "[7]; DND41, DND-41 cell line, read-out: Haematopoietic & Lymphoid tumors, EC50 (μM) DND-41", "value": 0.798, "unit": "µM"}, {"measurement": "EC50", "setting": "[7]; MV4-11, MV-4-11 cell line, read-out: Haematopoietic & Lymphoid tumors, EC50 (μM) MV-4-11", "value": 0.057, "unit": "µM"}, {"measurement": "EC50", "setting": "[7]; Rec1, REC-1 cell line, read-out: Haematopoietic & Lymphoid tumors, EC50 (μM) REC-1", "value": 0.261, "unit": "µM"}, {"measurement": "EC50", "setting": "[7]; SU-DHL-4, SUDHL4 cell line, read-out: Haematopoietic & Lymphoid tumors, EC50 (μM) SUDHL4", "value": 0.779, "unit": "µM"}, {"measurement": "EC50", "setting": "[7]; HL-60 cell line, read-out: Haematopoietic & Lymphoid tumors, EC50 (μM) HL-60", "value": 1.64, "unit": "µM"}, {"measurement": "EC50", "setting": "[7]; JM1 cell line, read-out: Haematopoietic & Lymphoid tumors, EC50 (μM) JM1", "value": 0.237, "unit": "µM"}, {"measurement": "EC50", "setting": "[7]; JURKAT, Clone E6-1 cell line, read-out: Haematopoietic & Lymphoid tumors, EC50 (μM) JURKAT, Clone E6-1", "value": 0.88, "unit": "µM"}, {"measurement": "EC50", "setting": "[7]; JeKo-1 cell line, read-out: Haematopoietic & Lymphoid tumors, EC50 (μM) JeKo-1", "value": 0.201, "unit": "µM"}, {"measurement": "EC50", "setting": "[7]; KASUMI-1 cell line, read-out: Haematopoietic & Lymphoid tumors, EC50 (μM) KASUMI-1", "value": 0.273, "unit": "µM"}, {"measurement": "EC50", "setting": "[7]; Loucy cell line, read-out: Haematopoietic & Lymphoid tumors, EC50 (μM) Loucy", "value": 0.581, "unit": "µM"}, {"measurement": "EC50", "setting": "[7]; MOLT-4 cell line, read-out: Haematopoietic & Lymphoid tumors, EC50 (μM) MOLT-4", "value": 0.999, "unit": "µM"}, {"measurement": "EC50", "setting": "[7]; TF-1 cell line, read-out: Haematopoietic & Lymphoid tumors, EC50 (μM) TF-1", "value": 1.31, "unit": "µM"}, {"measurement": "EC50", "setting": "[7]; TOLEDO cell line, read-out: Haematopoietic & Lymphoid tumors, EC50 (μM) TOLEDO", "value": 0.182, "unit": "µM"}, {"measurement": "EC50", "setting": "[8]", "value": 3.55, "unit": "µM"}, {"measurement": "EC50", "setting": "[9]", "value": 0.411, "unit": "µM"}, {"measurement": "EC50", "setting": "[10]", "value": 1.84, "unit": "µM"}, {"measurement": "EC50", "setting": "[11]", "value": 2.04, "unit": "µM"}, {"measurement": "EC50", "setting": "[12]", "value": 0.367, "unit": "µM"}, {"measurement": "EC50", "setting": "[13]", "value": 3.85, "unit": "µM"}, {"measurement": "EC50", "setting": "[14]", "value": 3.39, "unit": "µM"}, {"measurement": "EC50", "setting": "[15]", "value": 0.786, "unit": "µM"}, {"measurement": "EC50", "setting": "[16]", "value": 1.22, "unit": "µM"}, {"measurement": "EC50", "setting": "[17]; PA-1, PA1 cell line, read-out: Ovarian cancer, EC50 (μM) PA1", "value": 0.819, "unit": "µM"}, {"measurement": "EC50", "setting": "[17]; TOV112D, TOV-112D cell line, read-out: Ovarian cancer, EC50 (μM) TOV-112D", "value": 0.533, "unit": "µM"}, {"measurement": "EC50", "setting": "[17]; OV-90 cell line, read-out: Ovarian cancer, EC50 (μM) OV-90", "value": 1.98, "unit": "µM"}, {"measurement": "EC50", "setting": "[17]; OVCAR-3 cell line, read-out: Ovarian cancer, EC50 (μM) OVCAR-3", "value": 0.568, "unit": "µM"}, {"measurement": "EC50", "setting": "[18]; A-427, A427 cell line, read-out: Lung cancer, EC50 (μM) A427", "value": 0.619, "unit": "µM"}, {"measurement": "EC50", "setting": "[18]; HCC78, HCC-78 cell line, read-out: Lung cancer, EC50 (μM) HCC-78", "value": 3.02, "unit": "µM"}, {"measurement": "EC50", "setting": "[18]; NCI-H460 cell line, read-out: Lung cancer, EC50 (μM) NCI-H460", "value": 0.856, "unit": "µM"}, {"measurement": "EC50", "setting": "[18]; NCI-H522 cell line, read-out: Lung cancer, EC50 (μM) NCI-H522", "value": 0.57, "unit": "µM"}]}]}
